The target in series [1] is Protein kinase C delta type (Homo sapiens, UniProt Q05655). Put plainly: Inhibition of human PKCdelta by IMAP assay.
Series [2] addresses Protein kinase C theta type (Homo sapiens, UniProt Q04759). The series is described as follows: Inhibition of human PKCtheta by IMAP assay.
In series [3] the target is Tyrosine-protein kinase Lyn (Homo sapiens, UniProt P07948). Put plainly: Inhibition of Lyn.
Series [4] is described as follows: Metabolic stability in rat liver microsomes assessed as half life. Type of series: ADME, Microsome. For orientation: Liver microsomes are vesicles of endoplasmic reticulum, rich in cytochrome P450 enzymes.
A short description of series [5]: Inhibition of IKK.
Series [6] has as its target Protein kinase C beta type (Homo sapiens, UniProt P05771). Put plainly: Inhibition of human PKCbeta by IMAP assay.
Series [7] is described as follows: Metabolic stability in human liver microsomes assessed as half life. Type of series: ADME, Microsome.
Series [8] has as its target Rho-associated protein kinase 1 (Homo sapiens, UniProt Q13464). Put plainly: Inhibition of ROCK1.
For series [9], the system named is T-cell. The series is described as follows: Blockade of anti-CD3 and anti-CD28 antibody-induced IL2 expression in PKC theta knockout mouse T cells after 20 to 24 hrs by ELISA. Type of series: functional, cell-based. On the technique in general: An ELISA detects its analyte on a solid surface through an enzyme-linked reagent.
Series [10] is described as follows: Solubility at pH 7.4. Type of series: physicochemical. As to conditions: buffer.
Series [11] has as its system T-cell. Put plainly: Blockade of anti-CD3 and anti-CD28 antibody-induced IL2 expression in wild type C57BL/6 mouse T cells after 20 to 24 hrs by ELISA. As to conditions: C57BL/6, T-cell. The format is functional, cell-based.
Series [12] deals with Tyrosine-protein kinase Lck (Homo sapiens, UniProt P06239). Put plainly: Inhibition of Lck.
Chain of Tyrosine-protein kinase Lck (P06239 whole entry): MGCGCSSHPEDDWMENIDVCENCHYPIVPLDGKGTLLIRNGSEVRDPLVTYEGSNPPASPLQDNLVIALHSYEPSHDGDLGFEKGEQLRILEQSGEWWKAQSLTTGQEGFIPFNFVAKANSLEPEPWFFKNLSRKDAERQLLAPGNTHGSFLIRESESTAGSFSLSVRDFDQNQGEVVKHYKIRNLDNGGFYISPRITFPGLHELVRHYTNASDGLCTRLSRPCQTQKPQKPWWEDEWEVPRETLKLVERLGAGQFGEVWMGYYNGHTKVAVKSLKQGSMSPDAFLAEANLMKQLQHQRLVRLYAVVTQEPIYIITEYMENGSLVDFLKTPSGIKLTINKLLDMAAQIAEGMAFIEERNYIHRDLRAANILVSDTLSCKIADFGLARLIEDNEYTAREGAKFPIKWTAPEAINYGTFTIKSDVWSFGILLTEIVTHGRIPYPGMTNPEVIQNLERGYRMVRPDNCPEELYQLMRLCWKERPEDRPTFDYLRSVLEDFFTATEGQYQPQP
A short description of series [13]: Metabolic stability in mouse liver microsomes assessed as half life. Type of series: ADME, Microsome.
The nature of series [14]: Inhibition of p38.
In series [15] the target is T1, Protein kinase C zeta type (Homo sapiens, UniProt Q05513).
T1 sequence (Q05513 whole entry): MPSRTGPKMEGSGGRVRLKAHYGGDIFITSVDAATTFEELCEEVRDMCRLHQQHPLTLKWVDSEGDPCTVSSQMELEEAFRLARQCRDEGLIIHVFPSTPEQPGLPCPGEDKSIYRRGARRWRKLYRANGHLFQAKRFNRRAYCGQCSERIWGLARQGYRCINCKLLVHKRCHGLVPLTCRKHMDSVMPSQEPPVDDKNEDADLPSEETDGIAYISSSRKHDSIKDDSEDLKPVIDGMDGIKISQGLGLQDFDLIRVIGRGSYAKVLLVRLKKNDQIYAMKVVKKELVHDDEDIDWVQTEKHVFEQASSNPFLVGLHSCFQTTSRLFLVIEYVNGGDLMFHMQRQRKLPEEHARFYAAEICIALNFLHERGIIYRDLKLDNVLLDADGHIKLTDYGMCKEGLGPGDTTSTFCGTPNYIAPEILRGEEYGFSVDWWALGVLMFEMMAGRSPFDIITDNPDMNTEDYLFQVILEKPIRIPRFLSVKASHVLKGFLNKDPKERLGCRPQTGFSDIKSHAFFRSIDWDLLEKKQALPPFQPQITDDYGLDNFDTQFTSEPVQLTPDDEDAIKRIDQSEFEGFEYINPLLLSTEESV
Put plainly: Inhibition of human PKCzeta by IMAP assay.

A short description of series [16]: Membrane permeability by PAMPA. Type of series: ADME. The conditions noted are these: read-out: permeability. For orientation: In PAMPA a lipid-coated filter parts donor from acceptor wells.
A short description of series [17]: Metabolic stability in monkey liver microsomes assessed as half life. The conditions noted are these: rhesus monkey. The format is ADME, Macaca mulatta, Microsome.
A short description of series [18]: Metabolic stability in dog liver microsomes assessed as half life. The format is ADME, Canis lupus familiaris, Microsome.
The target in series [19] is Protein kinase C eta type (Homo sapiens, UniProt P24723). Put plainly: Inhibition of human PKCeta by IMAP assay.
Chain of Protein kinase C eta type (P24723 whole entry): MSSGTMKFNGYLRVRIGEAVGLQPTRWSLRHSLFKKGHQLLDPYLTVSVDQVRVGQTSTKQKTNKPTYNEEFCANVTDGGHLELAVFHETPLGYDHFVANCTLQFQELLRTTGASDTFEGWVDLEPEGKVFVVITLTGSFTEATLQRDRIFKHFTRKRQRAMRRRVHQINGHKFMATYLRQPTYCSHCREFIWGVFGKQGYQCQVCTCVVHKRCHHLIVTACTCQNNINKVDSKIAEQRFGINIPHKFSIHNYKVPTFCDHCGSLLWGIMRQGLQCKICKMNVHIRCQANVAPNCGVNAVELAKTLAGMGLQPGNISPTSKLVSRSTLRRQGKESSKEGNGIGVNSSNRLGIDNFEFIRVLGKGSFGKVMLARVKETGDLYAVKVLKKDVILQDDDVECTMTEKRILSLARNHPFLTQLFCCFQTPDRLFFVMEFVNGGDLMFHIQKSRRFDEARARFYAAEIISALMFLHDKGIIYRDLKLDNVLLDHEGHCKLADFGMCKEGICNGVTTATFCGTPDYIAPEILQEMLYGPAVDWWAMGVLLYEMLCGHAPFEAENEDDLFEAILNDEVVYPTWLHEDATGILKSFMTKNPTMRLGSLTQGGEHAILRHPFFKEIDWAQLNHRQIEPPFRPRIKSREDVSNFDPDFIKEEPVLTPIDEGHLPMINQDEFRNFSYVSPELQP
Series [20] has as its target T2, Protein kinase C epsilon type (Homo sapiens, UniProt Q02156).
T2 sequence (Q02156 whole entry): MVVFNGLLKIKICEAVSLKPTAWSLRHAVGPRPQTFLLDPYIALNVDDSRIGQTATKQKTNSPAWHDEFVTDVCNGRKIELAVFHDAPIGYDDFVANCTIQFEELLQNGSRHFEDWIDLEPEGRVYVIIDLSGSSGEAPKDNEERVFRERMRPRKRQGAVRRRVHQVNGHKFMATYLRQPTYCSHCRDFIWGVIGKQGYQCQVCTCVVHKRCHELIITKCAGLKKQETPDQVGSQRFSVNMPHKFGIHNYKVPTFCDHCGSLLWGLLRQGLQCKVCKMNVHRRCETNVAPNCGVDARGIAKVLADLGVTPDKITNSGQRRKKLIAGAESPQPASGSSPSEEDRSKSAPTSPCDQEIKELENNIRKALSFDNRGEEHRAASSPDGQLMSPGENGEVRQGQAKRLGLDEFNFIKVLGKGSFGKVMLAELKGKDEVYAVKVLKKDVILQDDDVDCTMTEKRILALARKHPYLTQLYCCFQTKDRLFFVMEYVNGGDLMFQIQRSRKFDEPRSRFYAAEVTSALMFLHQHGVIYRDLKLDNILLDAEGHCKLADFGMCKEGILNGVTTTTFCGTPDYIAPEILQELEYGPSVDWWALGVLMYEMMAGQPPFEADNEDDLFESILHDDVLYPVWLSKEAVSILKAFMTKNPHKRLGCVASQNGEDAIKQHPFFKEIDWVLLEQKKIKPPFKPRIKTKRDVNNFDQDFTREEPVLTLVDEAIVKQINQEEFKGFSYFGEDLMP
The series is described as follows: Inhibition of human PKCepsilon by IMAP assay.

Series [21] addresses MAP kinase-activated protein kinase 2 (Homo sapiens, UniProt P49137). The series is described as follows: Inhibition of MK2.
Series [22] is described as follows: Inhibition of PDGFR.

Values after ≈ are worked out from the molar mass of the structure shown.

Chain of Protein kinase C theta type (Q04759 whole entry): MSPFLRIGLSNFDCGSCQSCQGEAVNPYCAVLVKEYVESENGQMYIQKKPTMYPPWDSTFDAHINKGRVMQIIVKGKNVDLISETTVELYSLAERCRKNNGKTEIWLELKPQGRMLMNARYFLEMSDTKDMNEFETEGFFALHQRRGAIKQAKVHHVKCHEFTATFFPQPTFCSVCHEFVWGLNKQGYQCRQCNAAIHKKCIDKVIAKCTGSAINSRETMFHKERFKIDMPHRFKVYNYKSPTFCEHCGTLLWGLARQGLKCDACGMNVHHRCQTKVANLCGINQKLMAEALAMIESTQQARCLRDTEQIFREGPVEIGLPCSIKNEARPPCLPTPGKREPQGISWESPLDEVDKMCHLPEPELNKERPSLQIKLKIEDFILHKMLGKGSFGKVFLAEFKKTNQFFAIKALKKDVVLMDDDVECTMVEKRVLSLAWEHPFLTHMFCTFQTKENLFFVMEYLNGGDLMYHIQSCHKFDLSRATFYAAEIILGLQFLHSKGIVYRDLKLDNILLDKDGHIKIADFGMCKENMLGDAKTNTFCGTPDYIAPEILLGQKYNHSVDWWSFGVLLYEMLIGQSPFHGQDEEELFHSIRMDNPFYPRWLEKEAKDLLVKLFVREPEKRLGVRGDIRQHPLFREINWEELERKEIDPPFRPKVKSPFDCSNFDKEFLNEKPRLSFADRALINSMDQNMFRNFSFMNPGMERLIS
Chain of Protein kinase C delta type (Q05655 whole entry): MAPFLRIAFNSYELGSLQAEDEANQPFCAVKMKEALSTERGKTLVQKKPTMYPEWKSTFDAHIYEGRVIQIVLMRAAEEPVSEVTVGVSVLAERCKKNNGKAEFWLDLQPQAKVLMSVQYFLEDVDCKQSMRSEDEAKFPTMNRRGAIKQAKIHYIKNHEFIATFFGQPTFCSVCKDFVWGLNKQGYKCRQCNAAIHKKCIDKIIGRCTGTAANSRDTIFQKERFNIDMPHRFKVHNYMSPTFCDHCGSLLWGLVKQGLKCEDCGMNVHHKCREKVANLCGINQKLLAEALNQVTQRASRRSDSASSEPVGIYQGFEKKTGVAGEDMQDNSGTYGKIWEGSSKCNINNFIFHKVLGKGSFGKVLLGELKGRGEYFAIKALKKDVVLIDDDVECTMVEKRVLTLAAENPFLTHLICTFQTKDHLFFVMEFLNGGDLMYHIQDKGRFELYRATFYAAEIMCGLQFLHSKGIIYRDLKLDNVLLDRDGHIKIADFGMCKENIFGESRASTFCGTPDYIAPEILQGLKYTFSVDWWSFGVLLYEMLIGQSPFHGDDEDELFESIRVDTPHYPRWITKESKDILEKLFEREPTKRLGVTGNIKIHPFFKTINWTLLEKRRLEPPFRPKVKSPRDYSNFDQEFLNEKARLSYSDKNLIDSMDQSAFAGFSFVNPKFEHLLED
Chain of MAP kinase-activated protein kinase 2 (P49137 whole entry): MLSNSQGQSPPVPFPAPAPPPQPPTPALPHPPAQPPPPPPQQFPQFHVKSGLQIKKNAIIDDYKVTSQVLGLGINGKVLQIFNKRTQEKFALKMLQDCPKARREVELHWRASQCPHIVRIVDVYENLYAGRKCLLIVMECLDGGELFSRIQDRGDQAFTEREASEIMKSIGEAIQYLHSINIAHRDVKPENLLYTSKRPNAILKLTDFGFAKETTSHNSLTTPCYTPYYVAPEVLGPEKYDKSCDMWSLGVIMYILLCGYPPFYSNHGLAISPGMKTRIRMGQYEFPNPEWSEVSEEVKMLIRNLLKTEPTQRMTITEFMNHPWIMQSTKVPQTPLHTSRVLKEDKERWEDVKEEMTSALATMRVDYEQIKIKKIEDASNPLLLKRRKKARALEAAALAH
Chain of Tyrosine-protein kinase Lyn (P07948 whole entry): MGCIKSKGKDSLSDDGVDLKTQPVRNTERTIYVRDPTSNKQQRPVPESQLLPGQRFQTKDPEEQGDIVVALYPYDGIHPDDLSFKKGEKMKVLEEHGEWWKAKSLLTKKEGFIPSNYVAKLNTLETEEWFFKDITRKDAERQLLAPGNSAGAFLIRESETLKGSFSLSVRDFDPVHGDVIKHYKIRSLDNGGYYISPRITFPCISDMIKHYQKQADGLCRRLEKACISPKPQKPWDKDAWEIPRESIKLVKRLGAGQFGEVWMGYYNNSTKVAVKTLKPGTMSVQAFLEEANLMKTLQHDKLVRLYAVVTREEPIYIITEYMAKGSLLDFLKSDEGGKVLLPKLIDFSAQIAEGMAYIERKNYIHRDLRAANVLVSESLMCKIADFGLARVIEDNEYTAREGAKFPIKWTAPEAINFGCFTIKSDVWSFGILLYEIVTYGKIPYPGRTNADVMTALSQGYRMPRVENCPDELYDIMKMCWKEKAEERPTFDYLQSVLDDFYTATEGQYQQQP
Chain of Rho-associated protein kinase 1 (Q13464 whole entry): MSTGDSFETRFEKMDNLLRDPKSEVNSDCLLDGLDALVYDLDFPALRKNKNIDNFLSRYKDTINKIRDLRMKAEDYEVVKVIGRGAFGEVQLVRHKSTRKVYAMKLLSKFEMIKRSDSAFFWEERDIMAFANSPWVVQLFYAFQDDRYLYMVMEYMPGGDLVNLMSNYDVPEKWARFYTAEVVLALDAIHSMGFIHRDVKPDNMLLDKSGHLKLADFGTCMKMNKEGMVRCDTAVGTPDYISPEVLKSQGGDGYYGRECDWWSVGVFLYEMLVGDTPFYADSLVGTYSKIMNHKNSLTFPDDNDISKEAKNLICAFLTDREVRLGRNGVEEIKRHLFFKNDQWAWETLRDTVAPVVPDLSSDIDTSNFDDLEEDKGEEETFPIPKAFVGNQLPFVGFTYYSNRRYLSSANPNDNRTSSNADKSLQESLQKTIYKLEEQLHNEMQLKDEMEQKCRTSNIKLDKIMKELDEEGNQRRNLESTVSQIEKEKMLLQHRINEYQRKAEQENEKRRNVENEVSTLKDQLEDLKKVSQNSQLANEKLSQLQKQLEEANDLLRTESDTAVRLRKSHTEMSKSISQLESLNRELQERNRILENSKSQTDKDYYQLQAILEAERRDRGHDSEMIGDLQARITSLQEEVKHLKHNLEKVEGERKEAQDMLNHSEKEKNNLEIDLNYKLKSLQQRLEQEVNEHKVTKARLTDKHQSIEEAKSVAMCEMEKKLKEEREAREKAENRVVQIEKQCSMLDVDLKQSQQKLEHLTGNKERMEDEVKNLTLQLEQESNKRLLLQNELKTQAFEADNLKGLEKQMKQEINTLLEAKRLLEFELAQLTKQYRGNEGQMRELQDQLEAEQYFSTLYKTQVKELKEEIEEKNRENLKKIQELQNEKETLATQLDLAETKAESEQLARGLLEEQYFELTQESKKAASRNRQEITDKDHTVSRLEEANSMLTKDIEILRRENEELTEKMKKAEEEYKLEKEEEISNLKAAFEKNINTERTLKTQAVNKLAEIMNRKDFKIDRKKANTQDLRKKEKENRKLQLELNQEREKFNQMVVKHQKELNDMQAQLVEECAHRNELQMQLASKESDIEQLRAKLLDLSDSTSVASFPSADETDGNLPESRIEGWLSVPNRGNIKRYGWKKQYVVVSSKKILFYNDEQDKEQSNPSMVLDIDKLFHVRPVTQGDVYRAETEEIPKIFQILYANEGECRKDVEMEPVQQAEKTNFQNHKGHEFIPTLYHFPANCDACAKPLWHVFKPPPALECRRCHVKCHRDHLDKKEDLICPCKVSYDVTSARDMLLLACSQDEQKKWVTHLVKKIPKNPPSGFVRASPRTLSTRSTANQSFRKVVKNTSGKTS

Take `COc1ccc(-c2cncc(C#N)c2Nc2ccc3[nH]ccc3c2F)cc1OC`: the IC50 amounted to 69 nM in series [1] and 5.3 nM in [2].

Consider `COc1ccc(-c2cncc(C#N)c2Nc2ccc3c(ccn3C)c2C)cc1OC`, for which the IC50 was found to be 1400 nM in series [1] and 260 nM in series [2].

The molecule `Cc1c(Nc2c(C#N)cncc2-c2ccccc2)ccc2[nH]ccc12` had an IC50 in [1] of 63 nM.

On to `COc1ccc(-c2cncc(C#N)c2Nc2ccc3[nH]ccc3c2C)cc1`, for which the IC50 was found to be 85 nM in series [1] and 5.6 nM in series [2].

In turn, `Cc1c(Nc2c(C#N)cncc2-c2ccc(OCCN3CCOCC3)cc2)ccc2[nH]ccc12` returned a half-maximal inhibitory concentration (IC50) in [1] of 150 nM.

With `Cc1c(Nc2c(C#N)cncc2-c2ccc(OCCN3CCN(C)CC3)cc2)ccc2[nH]ccc12`, the IC50 was over 10 µM in series [3]; over 10 µM in series [5]; 22 µM in [6]; 51 nM in series [1]; 7.4 nM in [2]; over 10 µM in [8]. Also, the 50% inhibitory concentration (IC50) with T-cell [9] is over 15 µM; with T-cell [11], 160 nM; in series [12], over 10 µM; in [14] it was over 10 µM; in [15] it was over 100 µM; in series [19] it was 450 nM. In addition, the 50% inhibitory concentration (IC50) in [20] is 54 nM; in [21] it was over 10 µM; in series [22], over 10 µM. Besides, the half-life in [4], in series [7], in [13], in series [17] and in series [18] was under 15 min in each case. In [10], this molecule registered a solubility of 67 µg/mL (≈ 144 µM). The Papp in series [16] was 0.28 ×10⁻⁶ cm/s.

For the molecule `Cc1cc2[nH]ccc2cc1Nc1c(C#N)cncc1-c1ccc(OCCN2CCN(C)CC2)cc1`, it took 130 nM to reach half-maximal inhibition in [1] (IC50).

On to `COc1ccc(-c2cncc(C#N)c2Nc2ccc3cc[nH]c3c2)cc1OC`, for which the IC50 in series [2] is 2300 nM.

`Cc1c(Nc2c(C#N)cncc2-c2ccc(OCCCN3CCN(C)CC3)cc2)ccc2[nH]ccc12` showed an IC50 in [1] of 110 nM.

With `CN1CCN(CCOc2ccc(-c3cncc(C#N)c3Nc3cccc4[nH]ccc34)cc2)CC1`, the half-maximal inhibitory concentration (IC50) in [1] worked out at 41 nM; in series [2] it was 14 nM.

For the molecule `Cc1c(Nc2c(C#N)cncc2-c2ccc(OCCN3CCC(N4CCCC4)CC3)cc2)ccc2[nH]ccc12`, the midpoint of inhibition in series [1], the IC50, lay at 30 nM.

In the case of `CCc1c(Nc2c(C#N)cncc2-c2ccc(OC)c(OC)c2)ccc2[nH]ccc12`, the IC50 in series [1] was found to be 980 nM; in series [2] it was 55 nM.

`COc1ccc(-c2cncc(C#N)c2Nc2cc(C)c3[nH]ccc3c2)cc1OC` showed an IC50 in series [2] of 120 nM.

As to `COc1ccc(-c2cncc(C#N)c2Nc2cc3cc[nH]c3cc2C)cc1OC`, the values for the half-inhibitory concentration (IC50) in [1] and in [2] were 280 nM and 10.5 nM, respectively.

Regarding `Cc1c(Nc2c(C#N)cncc2-c2ccc(OCCNCCN(C)C)cc2)ccc2[nH]ccc12`, the concentration for half-maximal inhibition (IC50) came out at 18 nM in [1] and 5.9 nM in series [2].

`COc1ccc(-c2cncc(C#N)c2N(C)c2ccc3[nH]ccc3c2)cc1OC`: the midpoint of inhibition in [1], the IC50, lay at 2100 nM.

As to `COc1ccc(-c2cncc(C#N)c2Oc2ccc3[nH]ccc3c2)cc1OC`, in [2], 1700 nM corresponded to half-maximal inhibition (IC50).

The molecule `COc1ccc(-c2cncc(C#N)c2-c2ccc3[nH]ccc3c2)cc1OC` gave an IC50 in series [2] of 1700 nM.

As to `Cc1c(Nc2c(C#N)cncc2-c2ccc(OCCN3CCCC3)cc2)ccc2[nH]ccc12`, the values for the half-maximal inhibitory concentration (IC50) in series [1] and in [2] were 28 nM and 4.5 nM, respectively.

Regarding `COc1ccc(-c2cncc(C#N)c2Nc2ccc3[nH]ccc3c2C)cc1OC`, the half-maximal inhibitory concentration (IC50) was 81 nM in [1] and 6.3 nM in series [2].

Molecule `COc1ccc(-c2cncc(C#N)c2Nc2ccc3[nH]ccc3c2OC)cc1OC` showed an IC50 in series [1] of 350 nM.

In [1], `COc1ccccc1-c1cncc(C#N)c1Nc1ccc2[nH]ccc2c1C` displayed an IC50 of 340 nM.

Consider `COc1ccc(-c2cncc(C#N)c2Nc2cccc3[nH]ccc23)cc1OC`, for which, in series [1], the IC50 was 62 nM.

Molecule `COc1cccc(-c2cncc(C#N)c2Nc2ccc3[nH]ccc3c2C)c1` showed a half-inhibitory concentration (IC50) in [1] of 210 nM.

In the case of `Cc1c(Nc2c(C#N)cncc2-c2ccc(OCCN3CCN(CCO)CC3)cc2)ccc2[nH]ccc12`, 29 nM corresponded to half-maximal inhibition in [1] (IC50).

Turning to `CN1CCN(CCOc2ccc(-c3cncc(C#N)c3Nc3ccc4[nH]ccc4c3)cc2)CC1`, the IC50 in series [1] stood at 160 nM.

One may read the IC50 as the midpoint of a concentration-inhibition curve. A word on the half-life: it is the time in which the quantity being followed falls by half. In general, solubility refers to the concentration that dissolves in the medium under given conditions.

The values above are taken from ChEMBL document CHEMBL1136942, “Optimization of 5-phenyl-3-pyridinecarbonitriles as PKCtheta inhibitors” (Bioorg Med Chem Lett, 2009).
